Patent US20250041624A1, “METHOD FOR ENHANCING ACTIVITY OF PHOTOSENSITIZER BY MAGNETIC FIELD” (PEKING UNIVERSITY, priority 2021, published 2025)

Tests used:
cleaved Caspase-3 = experiment: Western blot of cleaved Caspase-3 in HeLa cells; type: cell-based; details: RB 30 μmol/L treated HeLa; light; 250 mT vs no magnetic field
Method: HeLa cells (2×10^4/well) are seeded in 6-well plates and cultured for 24 hours, added with RB solution (final concentration 30 μmol/L) or PBS buffer (final concentration 0.01 mol/L), and after treating 24 hours, cells are washed 3 times with PBS buffer.
The cells are placed under a magnetic field at 0, 250 or 800 mT, simultaneously with light (561 nm, 5 mW·cm^−2) or in the dark. After 24 hours treatment, cells are washed with PBS buffer and collect by centrifugation. Protein is extracted from cells using RIPA lysis buffer (medium lysis strength). Target protein is detected with primary antibody, to identify cleaved Caspase-3 protease, Bax (BCL2-Associated X protein) and Bcl-2 (B lymphocytomatose-2 gene), respectively, with β-Actin antibody as the reference. Images are acquired by Bio-Rad ChemiDoc touch imaging system, and results are shown in FIG. 14, in which, group A is PBS buffer treated HeLa cells (light, no magnetic field); group B is RB treated HeLa cells (light, no magnetic field); group C is RB-treated Hela cells (light, 250 mT magnetic field); group D is RB-treated Hela cells (light, 800 mT magnetic field).
The change rate of protein expression is (AB−A0)/A0×100%, where AB and A0 are protein expression with and without magnetic field, respectively (obtained by ImageJ software analyzing the bands in FIG. 14).

HeLa xenograft tumor = HeLa xenograft tumor growth in BALB/c nude mice with photodynamic treatment and magnetic field; type: in vivo; details: RB 1.0 mg/kg intratumoral, 14 days
Method: Twenty-four five-weeks old female BALB/c nude mice are selected, 1×10^6 HeLa cells (in 200 μL 0.01 mol/L PBS buffer) are inoculated subcutaneously into the dorsal right flank of each mouse, and a xenograft tumor model is established (Five-weeks old female BALB/c nude mice are obtained from Beijing Agronomy and housed under standard environmental conditions. All animal procedures are approved by Beijing Agronomy Animal Care and Use Committee). After tumors growing up, 25 μL RB (1.0 mg/kg) or an equal volume of PBS buffer at a concentration of 0.01 mol/L are injected intratumorally.
The treatment conditions for dividing the mice into 8 groups (3 mice each) are as follows: • (1) Injection of PBS buffer-no light-no magnetic field (PBS-dark-0mT); • (2) Injection of PBS buffer-light-no magnetic field (PBS-light-0mT); • (3) Injection of PBS buffer-light-250mT magnetic field (PBS-light-250mT); • (4) Injection of PBS Buffer-Light-800mT magnetic field (PBS-light-800mT); • (5) RB-light-no magnetic field (RB-light-0mT) injection (RB-light-0mT); • (6) Injection of RB-light-100mT magnetic field (RB-light-100mT); • (7) Injection of RB-light-250mT magnetic field (RB-light-250mT); • (8) Inject RB-light-800mT magnetic field (RB-light-800mT).
All groups except group (1) receive light 5 min after injection at wavelength of 400-700 nm and power of 100 mW·cm^−2 and light time of 10 min. The tumor area of mice in groups (3), (4) and (6)-(8) are exposed to static magnetic field by using electromagnet during light exposure.
Test (one): Tumor size is monitored with digital calipers every other day for the following 14 days (peripheral measurements of tumors are performed […]), and tumors are calculated by Volume=Length×Width×[…]. Results for groups (2), (4), (5), (7), (8) are shown in FIG. 16, in which, ** is statistical probability p<0.01; *** is p<0.005, p<0.05 is considered significant. Each group is sacrificed 3 mice on day 14 post-injection, tumor tissues are collected for photographing and weighing, and tumor tissues are removed from groups (2), (3), (4), (5), (7), (8) as shown in FIG. 17; the rate of mass change of the tumor tissue in groups (5), (7), (8) is shown in FIG. 18, and the rate of mass change is (ωB−ω0)/ω0×100%, where ωB is the tumor mass under magnetic field conditions and ω0 is the tumor mass in group (5).

With O=C1OC2(c3cc(I)c(O)c(I)c3Oc3c2cc(I)c(O)c3I)c2c(Cl)c(Cl)c(Cl)c(Cl)c21 [RB, Rose Bengal] the “change rate of cleaved Caspase-3 expression (%)” value (cleaved Caspase-3) was 34.1 ± 1.9%, the “tumor growth (volume and mass)” value (HeLa xenograft tumor; group (5) RB-light-0mT, 400-700 nm 100 mW·cm−2 10 min) was “inhibition of tumor growth” and the “magnetic field effect on tumor growth” value (HeLa xenograft tumor; group (6) RB-light-100mT) was “no significant effect on tumor growth”. For the same molecule, the “tumor growth (volume and mass)” value (HeLa xenograft tumor; group (7) RB-light-250mT) was “further inhibition of tumor growth” and the “magnetic field effect on tumor growth” value (HeLa xenograft tumor; group (8) RB-light-800mT) was “no significant effect on tumor growth”.
